From PubChem BioAssay AID328 (DTP/NCI, 2004)
Inconclusive results and toxic doses are left out.

Tested on: BDF1 mice, P388 leukemia ip, median survival T/C
Test: NCI In Vivo Anticancer Drug Screen. Data for tumor model P388 Leukemia (intraperitoneal) in B6D2F1 (BDF1) mice
Details: endpoint: median survival time, higher = longer survival
In short: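 Steps: implant the tumour, treat one group with compound and another with vehicle, record survival, then divide treated by control.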

[1] = dose: 100.0 mg/kg/injection, schedule: Q01DX009 (ip), vehicle: saline with Tween-80
[2] = dose: 100.0 mg/kg/injection, schedule: Q04DX003 (ip), vehicle: saline with Tween-80
[3] = dose: 200.0 mg/kg/injection, schedule: Q01DX009 (ip), vehicle: saline with Tween-80
[4] = dose: 200.0 mg/kg/injection, schedule: Q04DX003 (ip), vehicle: saline with Tween-80
[5] = dose: 400.0 mg/kg/injection, schedule: Q04DX003 (ip), vehicle: saline with Tween-80
[6] = dose: 50.0 mg/kg/injection, schedule: Q01DX009 (ip), vehicle: saline with Tween-80
[7] = dose: 6.25 mg/kg/injection, schedule: Q01DX009 (ip), vehicle: saline
[8] = dose: 400.0 mg/kg/injection, schedule: Q01DX009 (ip), vehicle: saline with Tween-80

`O=S(/C=C/c1ccccc1)c1ccccc1` (stereo not given) was tested, and the T/C (dose: 50.0 mg/kg/injection, schedule: Q01DX009 (ip), vehicle: other) was 104 % of control, the T/C (dose: 100.0 mg/kg/injection, schedule: Q01DX009 (ip), vehicle: other) was 100 % of control and the T/C (dose: 200.0 mg/kg/injection, schedule: Q01DX009 (ip), vehicle: other) was 104 % of control.

With `COc1cc2ccnc(Cc3ccccc3)c2cc1OC` the T/C [1] was 109 % of control, the T/C [2] was 109 % of control and the T/C [3] was 104 % of control. The T/C [4] was 109 % of control and the T/C [5] was 109 % of control.

`Nn1c(-c2ccc([N+](=O)[O-])cc2)nc2ccccc2c1=O` was tested, and the T/C [6] was 90 % of control, the T/C [1] was 91 % of control and the T/C [3] was 91 % of control.

In the case of `C=C(CNC(C)(C)C)C(=O)c1ccccc1`, the T/C (dose: 3.13 mg/kg/injection, schedule: Q01DX009 (ip), vehicle: saline) is reported as 116 % of control and the T/C [7] is reported as 116 % of control.

For `CC(=O)C(C)=P(c1ccccc1)(c1ccccc1)c1ccccc1`, the T/C (dose: 25.0 mg/kg/injection, schedule: Q01DX009 (ip), vehicle: saline) was 102 % of control, the T/C (dose: 50.0 mg/kg/injection, schedule: Q01DX009 (ip), vehicle: saline) was 120 % of control and the T/C (dose: 200.0 mg/kg/injection, schedule: Q01DX009 (ip), vehicle: saline) was 113 % of control. The T/C (dose: 400.0 mg/kg/injection, schedule: Q01DX009 (ip), vehicle: saline) was 98 % of control.

With `CC1N/C(=C/c2ccccc2)C(=O)O1` (stereo not given) the T/C [6] was 118 % of control and the T/C [1] was 121 % of control.

`COc1ccc(NC(=O)Oc2ccc(OC)cc2)cc1` was tested, and the T/C (dose: 100.0 mg/kg/injection, schedule: Q04DX003 (ip), vehicle: Klucel (hydroxypropylcellulose) (HPC)) was 95 % of control, the T/C (dose: 200.0 mg/kg/injection, schedule: Q04DX003 (ip), vehicle: Klucel (hydroxypropylcellulose) (HPC)) was 100 % of control and the T/C (dose: 400.0 mg/kg/injection, schedule: Q04DX003 (ip), vehicle: Klucel (hydroxypropylcellulose) (HPC)) was 91 % of control.

For `Clc1nc2nc[nH]c2nc1Cl`, the T/C (dose: 12.5 mg/kg/injection, schedule: Q04DX003 (ip), vehicle: saline with Tween-80) was 100 % of control, the T/C (dose: 25.0 mg/kg/injection, schedule: Q01DX009 (ip), vehicle: saline with Tween-80) was 170 % of control and the T/C (dose: 25.0 mg/kg/injection, schedule: Q04DX003 (ip), vehicle: saline with Tween-80) was 100 % of control. The T/C [6] was 95 % of control, the T/C (dose: 50.0 mg/kg/injection, schedule: Q04DX003 (ip), vehicle: saline with Tween-80) was 90 % of control and the T/C [2] was 95 % of control.

For `O=C(CBr)c1ccc(F)cc1`, the T/C (dose: 0.78 mg/kg/injection, schedule: Q01DX009 (ip), vehicle: Klucel (hydroxypropylcellulose) (HPC)) was 110 % of control, the T/C (dose: 1.56 mg/kg/injection, schedule: Q01DX009 (ip), vehicle: Klucel (hydroxypropylcellulose) (HPC)) was 110 % of control and the T/C (dose: 3.12 mg/kg/injection, schedule: Q01DX009 (ip), vehicle: Klucel (hydroxypropylcellulose) (HPC)) was 112 % of control. For the same molecule, the T/C (dose: 6.25 mg/kg/injection, schedule: Q01DX009 (ip), vehicle: Klucel (hydroxypropylcellulose) (HPC)) was 118 % of control.

`CCCC(CC)C(C(=O)OCC)C1=NC(C)(C)CC(C)O1` (stereo not given) was tested, and the T/C (dose: 12.5 mg/kg/injection, schedule: Q01DX001 (ip), vehicle: saline sonified) was 100 % of control, the T/C (dose: 25.0 mg/kg/injection, schedule: Q01DX001 (ip), vehicle: saline sonified) was 100 % of control and the T/C (dose: 50.0 mg/kg/injection, schedule: Q01DX001 (ip), vehicle: saline sonified) was 100 % of control.

`COc1ccc(C2CCc3cc4c(cc3C2=O)OCO4)cc1OC` (stereo not given) was tested, and the T/C [1] was 100 % of control, the T/C [2] was 90 % of control and the T/C [3] was 95 % of control. For the same molecule, the T/C [4] was 100 % of control, the T/C [8] was 100 % of control and the T/C [5] was 100 % of control.

`CCN(CC)C(N)=Nc1ccc(NC(=O)c2ccc(C(=O)Nc3ccc(N=C(N)N(CC)CC)cc3)cc2)cc1` was tested, and the T/C (dose: 3.12 mg/kg/injection, schedule: Q01DX009 (ip), vehicle: saline) was 151 % of control, the T/C [7] was 196 % of control and the T/C (dose: 12.5 mg/kg/injection, schedule: Q01DX009 (ip), vehicle: saline) was 105 % of control.

For `COc1cccc(CN2CCCNCC2)c1`, the T/C (dose: 6.25 mg/kg/injection, schedule: Q04DX003 (ip), vehicle: water) was 92 % of control, the T/C (dose: 12.5 mg/kg/injection, schedule: Q04DX003 (ip), vehicle: water) was 93 % of control and the T/C (dose: 25.0 mg/kg/injection, schedule: Q04DX003 (ip), vehicle: water) was 93 % of control. For the same molecule, the T/C (dose: 50.0 mg/kg/injection, schedule: Q04DX003 (ip), vehicle: water) was 112 % of control and the T/C (dose: 100.0 mg/kg/injection, schedule: Q04DX003 (ip), vehicle: water) was 89 % of control.

In the case of `CCCCCCCSc1ncnc2nc[nH]c12`, the T/C [1] is reported as 100 % of control, the T/C [2] is reported as 86 % of control and the T/C [3] is reported as 86 % of control. The T/C [4] was 95 % of control, the T/C [8] was 109 % of control and the T/C [5] was 100 % of control.
